# Values quoted from earlier work, collected in paper PMC6727202 (Molecular pharmaceutics, 2019).
# System: kidney
smiles,measurement,setting,value
NCCCC[C@H](N)C(=O)O [lysine],Reduction of kidney uptake of radiolabeled octreotide,lysine,~ 35%
same,Reduction of renal uptake of radiolabeled octreotide,oral or intravenous administration of lysine,up to 40%
